One data set has as its system CYP1A1 and 1A2. Briefly: Ethoxyresorufin-O-deethylase (EROD) activity in cultured hepatocytes from humanized mice. The format is cell-based, human. To be noted: humanized mouse liver cells in culture. The procedure: (§1) Cultures of isolated hepatocytes were established and exposed to prototypical inducers of the cytochrome P450 genes. […]. In addition to the mRNA expression levels of human drug metabolism genes, the enzymatic activity of the human CYP1A and 3A family members were measured. Ethoxyresorufin-O-deethylase activity (EROD) is known to be mediated by CYP1A1 and 1A2 in human liver. […] Thus, hepatocytes from repopulated FRG livers were indistinguishable from normal human adult hepatocytes in these standard drug metabolism assays.

Data set [1] has as its system human drug metabolism genes. Briefly: Induction of mRNAs of drug metabolism genes in cultured hepatocytes from humanized mice (real-time PCR). The note with it: cultured hepatocytes from chimeric mice, mRNA. In kind it is cell-based. How it is done:
as §1
A general note: Real-time PCR tracks product formation cycle by cycle.

The subject of data set [2] is FRG mice. Briefly: Maintenance of FRG mice on NTBC in drinking water and NTBC withdrawal. The format is in vivo, mouse. The procedure: To generate an immunodeficient Fah^−/− mouse strain completely lacking T cells, B cells and NK cells, but without a DNA repair defect, Fah^−/−/Rag2^−/−/Il2rg^−/− (FRG) mice were generated. Male Fah^−/−129S4 mice (Grompe et al. Genes Dev. 7:2298-2307, 1993) were crossed with female Rag2^−/−/Il2rg^−/− mice (Taconic). All animals were maintained with drinking water containing 2-(2-nitro-4-trifluoro-methyl-benzoyl)-1,3 cyclohexanedione (NTBC) at a concentration of 1.6 mg/L (Grompe et al. Nat. Genet. 10:453-460, 1995). To confirm the genotypes of each animal, PCR-based genotyping was carried out on 200 ng genomic DNA isolated from toe tissue (Grompe et al. Genes Dev. 7:2298-2307, 1993; Traggiai et al. Science 304:104-107, 2004).

Data set [3] deals with CYP3A4. Briefly: Conversion of testosterone to 6-beta-hydroxyltestosterone in cultured hepatocytes from humanized mice. The note with it: cultured hepatocytes from repopulated FRG livers. The text has this: (§2) The basal expression and induction of human liver specific genes in chimeric mice was examined. […] Primers, obtained from Applied Biosystems, were specific for human CYP1A1 (Hs00153120_m1), CYP1A2 (Hs00167927_m1), CYP3A4 (Hs00430021_m1), CYP3A7 (Hs00426361_a1), CYP2B6 (Hs00167937_g1), CYP2D6 (Hs00164385_a1), Multidrug resistance associated protein MRP2 (Hs00166123_m1), Bile Salt export Pump BSEP, (Hs00184829_m1), CAR (Hs00231959_m1) Albumin (Hs00609411_m1), HNF4α (Hs00230853_m1), Cyclophillin (Hs99999904_m1) and mouse actin (Ma00607939_s1).
Cultures of isolated hepatocytes were established and exposed to prototypical inducers of the cytochrome P450 genes. […] In addition to the mRNA expression levels of human drug metabolism genes, the enzymatic activity of the human CYP1A and 3A family members were measured. Ethoxyresorufin-O-deethylase activity (EROD) is known to be mediated by CYP1A1 and 1A2 in human liver.

Data set [4] relates to CYP3A4. Briefly: Induction of CYP3A4 mRNA in hepatocytes from humanized mice (real-time PCR). The note with it: relative to non-induced cultures; FIG. 7B.
Text: as §2

Data set [5] has as its system FRG mice. Description: Liver repopulation of FRG mice treated with anakinra (blood human albumin by ELISA). The format is in vivo, mouse. The note with it: for blood level of human albumin, Elisa #1: Experiment #3, serial transplantation. The procedure:
Small amounts of blood were collected once a week from the left saphenous vein with a heparinized blood capillary. After 1,000 or 10,000× dilution with Tris-buffered saline, human albumin concentration was measured with the Human Albumin ELISA Quantitation Kit (Bethyl) according to the manufacturer's protocol.
One million human hepatocytes from the same batch were injected intrasplenically into six FRG mice. In three mice, anakinra (2 mg) was administered intraperitoneally during surgery and then once daily for six additional doses (total dose=14 mg over 7 days). One month after transplantation, blood human albumin was measured by ELISA. […] All three anakinra-treated mice had much higher albumin levels (130, 165 and 200 μg/ml).
Additional experiments validated these initial observations. […] Cohorts of genetically identical mice were injected with the same batch of human cells and were either untreated (Con) or treated with anakinra (Ana). Different dosing regimens of anakinra were used and different lengths of administration were tested. High dose anakinra (Hi) was 2 mg/mouse/day and low dose (lo) was 0.4 mg/mouse/day. The drug was injected daily for either 3 days (×3) or 7 days (×7). Blood levels of human albumin were measured by ELISA to ascertain the degree of human repopulation.
For orientation: ELISA stands for enzyme-linked immunosorbent assay.

Values joined by “and” are separate entries in the source; they are usually repeats but may differ in a detail not shown here. Equal values may be shown once. “Also recorded” adds a separate entry of the source.

Consider `O=c1cc(-c2ccccc2)oc2ccc3ccccc3c12` [BNF, beta-naphthoflavone], for which the “EROD activity after prior exposure to inducer” value with CYP1A1 and 1A2 is “specifically and robustly induced”. Moreover, the “pattern of genes induced” value in data set [1] is given as “as expected from normal human cells”.
With `O=C1CCCC(=O)C1C(=O)c1ccc(C(F)(F)F)cc1[N+](=O)[O-]` [NTBC, 2-(2-nitro-4-trifluoro-methyl-benzoyl)-1,3 cyclohexanedione], in the data set on FRG mice [2] (FRG mice, gradual hepatocellular injury after withdrawal), the “death after NTBC withdrawal” value is 4-8 weeks. For the same compound, the “growth and fertility of FRG mice” value with FRG mice [2] (NTBC continuously in drinking water, 1.6 mg/L) was “grew well and were fully fertile”.
Consider `CCC1(c2ccccc2)C(=O)NC(=O)NC1=O` [PB, phenobarbital], for which, in the data set on CYP3A4 [3], the “conversion of testosterone to 6-beta-hydroxyltestosterone after prior exposure to inducer” value is “specifically induced”. Besides, the “induction of CYP3A4 mRNA” value with CYP3A4 [4] is recorded as “even more striking than at the enzyme level”.
Consider “anakinra: recombinant, non-glycosylated version of human IL-1RA (IL-1 receptor antagonist), 153 amino acids, SEQ ID NO: 21”, for which the “blood level of human albumin, Elisa #2” value in the data set on FRG mice [5] (Experiment #1, primary transplantation, high dose (2 mg/mouse/day) x7) is 5.6 mg and 4.8 mg. For the same compound, the “blood level of human albumin, Elisa #1” value is 52 μg-Hi x3 and 60 μg-Hi x3 in the data set on FRG mice [5] (Hi (2 mg/mouse/day) x3); 38 μg-Hi x7 and 56 μg-Hi x7 in the data set on FRG mice [5] (Hi (2 mg/mouse/day) x7). In addition, the blood human albumin in the data set with FRG mice [5] (FRG mice, one million human hepatocytes intrasplenically, anakinra 2 mg i.p. during surgery then once daily for six doses (total 14 mg over 7 days), one month after transplantation) was 130 µg/mL and 165 µg/mL and 200 µg/mL. The “hepatocyte repopulation (in words)” value in the data set on FRG mice [5] (anakinra-treated versus untreated FRG mice) is “remarkably enhanced; also recorded: consistently had much higher levels of repopulation”. The “enhanced repopulation versus untreated mice” value in the data set on FRG mice [5] (on average, three independent tests of Table 6) is “approximately 100 fold”. Also, the “percentage of highly humanized FRG mice after transplantation of human hepatocytes” value with FRG mice [5] (with anakinra treatment versus without) is listed as “significantly higher”.

Source of the values: patent publication US20120045764A1, “METHOD OF EXPANDING HUMAN HEPATOCYTES IN VIVO” (priority 2009, published 2012).
